# In patent publication US20120252729A1, “PTH-CONTAINING THERAPEUTIC/PROPHYLACTIC AGENT FOR OSTEOPOROSIS, CHARACTERIZED IN THAT PTH IS ADMINISTERED ONCE A WEEK IN A UNIT DOSE OF 100 TO 200 UNITS” (ASAHI KASEI PHARMA CORPORATION, priority 2009, published 2012):
# System: patients diagnosed with primary osteoporosis
# Assay: Working Example 1: new vertebral fractures by x-ray (method of Genant et al.)
# Assay type: in vivo, human
# Method: Both the 5 and 100 unit groups were administered two tablets of a calcium agent (containing 500 mg of precipitated calcium carbonate [200 mg as calcium] per tablet) once a day.
# The osteoporosis patients were classified as condition shown in Table 1 based on the bone fracture risk factors present, as in Non-patent Reference 13, and compared. High-risk patients were defined as having all three factors involving age, prevalent vertebral fractures, and bone density or bone atrophy; low-risk patients were defined as other than the above.
# [1] = high-risk patients, 5 units, after 26 W
# [2] = high-risk patients, 5 units, after 52 W
# [3] = high-risk patients, 5 units, after 78 W
# [4] = high-risk patients, 5 units, after 104 W
# [5] = high-risk patients, 5 units, after 130 W
# [6] = high-risk patients, 100 units, after 26 W
# [7] = high-risk patients, 100 units, after 52 W
# [8] = high-risk patients, 100 units, after 78 W
# [9] = high-risk patients, 100 units, after 104 W
# [10] = high-risk patients, 100 units, after 130 W
# [11] = low-risk patients, 5 units, after 26 W
# [12] = low-risk patients, 5 units, after 52 W
# [13] = low-risk patients, 5 units, after 78 W
# [14] = low-risk patients, 5 units, after 104 W
# [15] = low-risk patients, 5 units, after 130 W
# [16] = low-risk patients, 100 units, after 26 W
# [17] = low-risk patients, 100 units, after 52 W
# [18] = low-risk patients, 100 units, after 78 W
# [19] = low-risk patients, 100 units, after 104 W
# [20] = low-risk patients, 100 units, after 130 W
substance,measurement,setting,value
teriparatide acetate,New vertebral fractures every 26 weeks: Incidence (%),[1],9.5%
same,New vertebral fractures every 26 weeks: No. of fractures,[1],8
same,New vertebral fractures every 26 weeks: No. with fractures,[1],6
same,New vertebral fractures every 26 weeks: Incidence (%),[2],11.1%
same,New vertebral fractures every 26 weeks: No. of fractures,[2],9
same,New vertebral fractures every 26 weeks: No. with fractures,[2],7
same,New vertebral fractures every 26 weeks: Incidence (%),[3],7.0%
same,New vertebral fractures every 26 weeks: No. of fractures,[3],4
same,New vertebral fractures every 26 weeks: No. with fractures,[3],4
same,New vertebral fractures every 26 weeks: Incidence (%),[4],2.9%
same,New vertebral fractures every 26 weeks: No. of fractures,[4],1
same,New vertebral fractures every 26 weeks: No. with fractures,[4],1
same,New vertebral fractures every 26 weeks: No. of fractures,[5],0
same,New vertebral fractures every 26 weeks: No. with fractures,[5],0
same,New vertebral fractures every 26 weeks: Incidence (%),[6],2.0%
same,New vertebral fractures every 26 weeks: No. of fractures,[6],1
same,New vertebral fractures every 26 weeks: No. with fractures,[6],1
same,New vertebral fractures every 26 weeks: Incidence (%),[7],2.0%
same,New vertebral fractures every 26 weeks: No. of fractures,[7],1
same,New vertebral fractures every 26 weeks: No. with fractures,[7],1
same,New vertebral fractures every 26 weeks: Incidence (%),[8],2.2%
same,New vertebral fractures every 26 weeks: No. of fractures,[8],1
same,New vertebral fractures every 26 weeks: No. with fractures,[8],1
same,New vertebral fractures every 26 weeks: No. of fractures,[9],0
same,New vertebral fractures every 26 weeks: No. with fractures,[9],0
same,New vertebral fractures every 26 weeks: No. of fractures,[10],0
same,New vertebral fractures every 26 weeks: No. with fractures,[10],0
same,New vertebral fractures every 26 weeks: No. of fractures,[11],0
same,New vertebral fractures every 26 weeks: No. with fractures,[11],0
same,New vertebral fractures every 26 weeks: Incidence (%),[12],4.8%
same,New vertebral fractures every 26 weeks: No. of fractures,[12],1
same,New vertebral fractures every 26 weeks: No. with fractures,[12],1
same,New vertebral fractures every 26 weeks: No. of fractures,[13],0
same,New vertebral fractures every 26 weeks: No. with fractures,[13],0
same,New vertebral fractures every 26 weeks: No. of fractures,[14],0
same,New vertebral fractures every 26 weeks: No. with fractures,[14],0
same,New vertebral fractures every 26 weeks: No. of fractures,[15],0
same,New vertebral fractures every 26 weeks: No. with fractures,[15],0
same,New vertebral fractures every 26 weeks: Incidence (%),[16],8.3%
same,New vertebral fractures every 26 weeks: No. of fractures,[16],2
same,New vertebral fractures every 26 weeks: No. with fractures,[16],1
same,New vertebral fractures every 26 weeks: No. of fractures,[17],0
same,New vertebral fractures every 26 weeks: No. with fractures,[17],0
same,New vertebral fractures every 26 weeks: No. of fractures,[18],0
same,New vertebral fractures every 26 weeks: No. with fractures,[18],0
same,New vertebral fractures every 26 weeks: No. of fractures,[19],0
same,New vertebral fractures every 26 weeks: No. with fractures,[19],0
same,New vertebral fractures every 26 weeks: No. of fractures,[20],0
same,New vertebral fractures every 26 weeks: No. with fractures,[20],0
